Patent US8247377B2, “Non-steroidal glucocorticoid inhibitors and their use in treating inflammation, allergy and auto-immune conditions” (Glaxo Group Limited, priority 2006, dated 2012)

Columns and labels:
[1] = biological target: T1, progesterone receptor (Homo sapiens, UniProt P06401); test: Assay for progesterone receptor activity (CV-1 cells, PRb-BacMam/MMTV-BacMam); assay type: cell-based; settings: CV-1 cells transduced with PRb-BacMam and MMTV-BacMam; read-out: pEC50 progesterone receptor activity (converted)
T1 construct: expressed in transfected cells; host or cells: CV-1 cells transduced with PRb-BacMam and MMTV-BacMam
T1 sequence (P06401 1-933): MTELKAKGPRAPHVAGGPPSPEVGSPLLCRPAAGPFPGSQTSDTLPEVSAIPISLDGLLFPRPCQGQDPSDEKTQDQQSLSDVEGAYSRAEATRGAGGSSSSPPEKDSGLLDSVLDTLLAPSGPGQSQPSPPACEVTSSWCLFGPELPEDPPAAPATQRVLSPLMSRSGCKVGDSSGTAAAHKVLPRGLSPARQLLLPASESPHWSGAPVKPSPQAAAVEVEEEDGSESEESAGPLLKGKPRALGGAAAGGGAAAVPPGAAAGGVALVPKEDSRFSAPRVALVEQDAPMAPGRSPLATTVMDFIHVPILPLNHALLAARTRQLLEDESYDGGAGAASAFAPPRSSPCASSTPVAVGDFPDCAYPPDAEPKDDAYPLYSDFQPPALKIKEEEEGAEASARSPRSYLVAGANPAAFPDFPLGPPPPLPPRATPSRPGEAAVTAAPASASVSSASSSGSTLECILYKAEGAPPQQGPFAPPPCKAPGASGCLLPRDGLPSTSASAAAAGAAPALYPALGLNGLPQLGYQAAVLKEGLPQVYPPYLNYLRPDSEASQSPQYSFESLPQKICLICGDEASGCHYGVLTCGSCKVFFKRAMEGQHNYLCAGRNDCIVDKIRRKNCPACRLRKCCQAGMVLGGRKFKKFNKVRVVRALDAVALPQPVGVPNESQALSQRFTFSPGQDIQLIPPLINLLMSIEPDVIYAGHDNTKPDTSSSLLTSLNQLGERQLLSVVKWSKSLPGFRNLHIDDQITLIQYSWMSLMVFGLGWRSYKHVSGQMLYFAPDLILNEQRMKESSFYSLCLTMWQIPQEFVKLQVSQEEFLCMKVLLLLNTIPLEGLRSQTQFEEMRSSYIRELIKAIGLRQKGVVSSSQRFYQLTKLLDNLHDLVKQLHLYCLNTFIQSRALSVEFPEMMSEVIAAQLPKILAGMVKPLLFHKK
Summary of the method: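 CV-1 cells co-transduced with PRb-BacMam and MMTV-BacMam (10% each), seeded onto compounds in DMEM with 10% serum. After 24 h, luminescence was read with Steadylite. pEC50 values were estimated from dose-response curves.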

[2] = biological target: T2, glucocorticoid receptor (Homo sapiens, UniProt P04150); test: Glucocorticoid receptor binding assay (fluorescence polarisation); settings: competition with Alexa 555 fluorescently-labelled dexamethasone derivative, full length glucocorticoid receptor; read-out: glucocorticoid binding pIC50 (converted)
T2 construct: a partially purified full length glucocorticoid receptor
T2 sequence (P04150 1-777): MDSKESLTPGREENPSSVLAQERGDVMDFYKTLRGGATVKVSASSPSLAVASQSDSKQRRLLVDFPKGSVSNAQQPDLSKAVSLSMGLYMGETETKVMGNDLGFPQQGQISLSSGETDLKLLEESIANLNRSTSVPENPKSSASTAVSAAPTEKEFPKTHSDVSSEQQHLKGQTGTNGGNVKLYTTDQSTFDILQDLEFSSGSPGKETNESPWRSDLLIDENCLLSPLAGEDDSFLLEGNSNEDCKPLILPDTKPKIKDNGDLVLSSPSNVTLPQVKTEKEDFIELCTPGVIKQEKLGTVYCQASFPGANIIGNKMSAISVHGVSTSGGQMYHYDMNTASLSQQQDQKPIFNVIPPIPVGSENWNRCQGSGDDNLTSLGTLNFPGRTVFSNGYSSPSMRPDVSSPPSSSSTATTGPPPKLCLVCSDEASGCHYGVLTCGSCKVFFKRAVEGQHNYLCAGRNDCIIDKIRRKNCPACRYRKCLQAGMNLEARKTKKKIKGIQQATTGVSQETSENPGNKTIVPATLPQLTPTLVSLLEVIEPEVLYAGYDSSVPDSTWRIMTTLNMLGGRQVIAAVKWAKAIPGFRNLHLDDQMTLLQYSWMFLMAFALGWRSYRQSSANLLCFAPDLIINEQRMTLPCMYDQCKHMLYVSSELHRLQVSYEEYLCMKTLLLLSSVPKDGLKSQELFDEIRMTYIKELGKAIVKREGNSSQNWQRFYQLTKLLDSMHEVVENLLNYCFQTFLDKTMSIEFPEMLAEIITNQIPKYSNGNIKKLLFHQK
Summary of the method: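 Compounds in DMSO incubated with fluorescent dexamethasone and partially purified full-length GR plus stabilising buffer components, 2 hrs at room temperature in the dark. Displacement read as decrease in fluorescence polarisation; pIC50 estimated from dose-response curves.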

## Nc1c(C(=O)NCC(O)(CNC(=O)c2c(Cl)cccc2Br)C(F)(F)F)cnn1-c1ccc(F)cc1 (single isomer, unassigned) [Example 12 Enantiomer 1, 5-Amino-N-[2-({[(2-bromo-6-chlorophenyl)carbonyl]amino}methyl)-3,3,3-trifluoro-2-hydroxypropyl]-1-(4-fluorophenyl)-1H-pyrazole-4-carboxamide]
[1]
  EC50: > 1 µM
[2]
  IC50: ≤ 0.316 µM
